# From patent US7414068B2, “Benzopyran derivatives substituted with secondary amines including tetrazole, method for the preparation thereof and pharmaceutical compositions containing them” (Dongbu Hannong Chemical Co., Ltd., priority 2002, dated 2008)
# Experiments:
# [1] = test system: A7r5 (Rat thoracic aorta smooth muscle cell line, ATCC); assay: Inhibitory effect on accumulation of reactive oxygen species induced by hydrogen peroxide (DCF fluorescence); type: cell-based; conditions: hydrogen peroxide 50 μM
# Description: To measure reactive oxygen species, H2DCFDA (2′,7′-dichlorodihydrofluorescein diacetate, Molecular Probes, Eugene, Oreg., USA) was used. If H2DCFDA, nonpolar material is transferred through cell membrane, it is changed to H2DCF (2′,7′-dichlorodihydrofluorescein), material impermeable to membrane by intracellular esterase. H2DCF is changed to high fluorescent DCF (2′,7′-dichlorofluorescein) by low fluorescent peroxidated oxygen or hydroxyl radical. H2DCFDA solution (10 mM) dissolved in DMSO was used before the experiment. A7r5 (Rat thoracic aorta smooth muscle cell line, ATCC), as smooth muscle cell was incubated in DMEM (Dulbecco's Modified Eagle's Medium) containing 10% of FBS (fetal bovine serum). Thereafter, the cell was incubated in 48 well plate for two days, then was incubated in serum-free DMEM for 24 hours to use for experiment. Krebs-linger buffer (Krebs-Ringer (K-R), 99.01 mM NaCl, 4.69 mM KCl, 1.87 mM CaCl2, 1.2 mM MgSO4, 1.03 mM K2HPO4, 25 mM NaHCO3, 20 mM Hepes, 11.1 mM D-glucose, pH 7.4) was used for washing and process of cell monolayers. After cell monolayers media was removed, each of test compounds (0.2 ml) was pre-treated to media, then incubated at 37° C. for 15 min. Final concentration was 50 μM, hydrogen peroxide was added. The media was allowed to stand for 30 min. The said solution from media was removed. The media was washed one time. H2DCFDA 20 μM was added to the media. The media was allowed to stand for 30 min. the media was washed two times. Thereafter, oxidation of H2DCFDA was measured by Fluorescence reader (FL600, Biotech Instruments, 485 nm excitation, 530 nm emission).
# new born rats = assay: Protective effect on ischemic-hypoxic brain injury (MRS); type: in vivo, rat; conditions: for Lip/Cr / Lip/NAA: MRS
# Text: By using the said report, the protective effect on brain damage induced by hypoxia […] was investigated. [Van der A. Toorn et al. Magnetic Resonance in Medicine, 1996, 36, 914-922]. It was reported that the lipid peak was increased in MRS by ischemic neuronal cell injury due to the destruction of cell membrane including blood-brain barrier. Also, it was reported that increase of lipid concentration was correlated to apoptosis. [A. Bizzi et al., Magnetic Resonance Imaging, 1996, 14, 581-592]. Therefore, it was reported that Lipid/NAA and Lipid/Cr obtained by comparing lipid with N-acetylaspartate (NAA) and creatine (Cr) as marker of neuronal cell was correlated to morphological changes and severity of apoptosis on hypoxic brain damage.
# In new born rats (within 7 days, 10˜15 g), left carotid artery were intermitted for 3 hours to induce hypoxia. Test compounds were intraperitoneally injected before 1 hour of hypoxia. […] of which the carotid artery was intermitted was used as ischemic-hypoxic model, right eye of which the carotid artery was not intermitted was used as hypoxic model. Magnetic resonance spectrum was obtained from both models, after histological test, accomplished in one day from damage. From the said result, Lipid/NAA or Lipid/Cr was measured. Also, viability and morphological score by macroscopic observation of infarct volume was calculated.
# diabetic rats = assay: Effect on motor nerve conduction velocity in diabetic rats; type: in vivo, rat; conditions: 50 mg/kg orally once a day
# Description: Diabetes was induced with injection of Streptozotocin (65 mg/kg) in rats, then test compounds dissolved in 2 ml of media (physiological saline:ethanol:tween 80=1:1:1) were orally administrated once a day. Rats were anesthetized with pentotal, then the sciatic nerve was exposed to measure motor nerve conduction velocity. The nerve was stimulated at two points. The first stimulus electrode was inserted at proximal end, and second electrode stimulus electrode was inserted at the distal notch. The coaxia needle electrode was inserted into interdigitala muscle, then the muscle action potential induced by two points stimulation. The conduction velocity was calculated by dividing the distance between two stimulus points by the latency differences. Lipoic acid (100 mg/kg) was used in comparison with the compound of the present invention in recovery of impaired Motor Nerve Conduction Velocity (MNCV) in diabetic rats. The recovery (%) of Motor Nerve Conduction was calculated according to the following mathematical formula 1.
# RAW 264.7 cells = assay: Inhibitory effect on NO production (LPS, Griess reagent); type: cell-based, murine; conditions: Mus musculus, RAW264.7, 24 h, Addition 30 μM, LPS 1 μg/ml, read-out: Inihibition (%) of NO production
# Description: Using RPMI1640 media supplemented with 10% fetal bovine serum (FBS), RAW 264.7 cells (obtained from American Type Culture Collection), a murine macrophage cell line, were cultured at 37° C. in a 5% CO2 incubator. The RAW 264.7 cells were harvested and cell density was adjusted to 5×10^5 cell/ml with a RPMI media supplemented with 0.5% FBS and plated at 5×10^4 cell/well to 96-well plate, which were then cultured for 20 hours in a CO2 incubator. After removal of the media, the cells were pre-treated for 1 hour with fresh media containing 30 μM. The test compounds were dissolved in DMSO and diluted to respective concentration in the media. In order to minimize DMSO effect on the nitric oxide formation by the RAW 264.7 cells in the walls, the media were allowed to contain DMSO at a concentration of 0.1% or less.
# After completion of one-hour pre-treatment, Lipopolysaccharide (E. coli serotype 055:B5) was added to activate the cells at a final concentration of 1 μg/ml, which were maintained for 24 hours in a CO2 incubator. As a result of the activation of RAW 264.7 cells with LPS, NO was formed. The NO release into the media was in a form of nitrite (NO2^−) and quantitatively measured using the Griess reagent. A control group was treated only with vehicle instead of test compounds.
# The inhibitory effect of the test compounds against NO production were determined as the reduction of NO quantity compared with that of the control group.
# [2] = Acute oral toxicity test in rats; conditions: SD, rat, in vivo, single oral dose, suspended in 0.5% methyl cellulose, read-out: lethal dose (LD50) for oral administration
# In short: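 Six-week-old SPF SD rats, two per group, received compounds orally as suspensions in 0.5% methyl cellulose. Endpoints were clinical signs, body weight, mortality, haematology, serum biochemistry and macroscopic necropsy of organs and tissues.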
# [3] = Hypoxic, 50 mg/kg intraperitoneally
smiles,measurement,setting,value
"COC(OC)[C@@]1(C)Oc2ccc(N)cc2[C@H](N(Cc2nnn(C)n2)c2ccc(Cl)cc2)[C@H]1O [Example 11, (2S,3R,4S)-6-amino-4-[N-(4-chlorophenyl)-N-(2-methyl-2H-tetrazol-5-ylmethyl)amino]-3-hydroxy-2-methyl-2-dimethoxymethyl-3,4-dihydro-2H-1-benzopyran]",Inhibitory(%) against reactive oxygen species accumulation,[1]; addition 3 μM,6%
same,Inhibitory(%) against reactive oxygen species accumulation,[1]; addition 10 μM,82%
same,Inhibitory(%) against reactive oxygen species accumulation,[1]; addition 30 μM,124%
same,Survival (%),new born rats; 50 mg/kg,79%
same,Survival (animals surviving/total),new born rats; 50 mg/kg,19/24
same,Morphological score,"new born rats; 50 mg/kg, macroscopic observation of infarct volume",1.4
same,Lip/Cr,new born rats; [3],1.55
same,Lip/NAA,new born rats; [3],1.69
same,Lip/NAA,"new born rats; Ischemic-hypoxic, 50 mg/kg intraperitoneally 1 hour before hypoxia",5.43
same,Lip/Cr,"new born rats; Ischemic-hypoxic, 50 mg/kg intraperitoneally",5.16
same,Recovery(%) of motor nerve conduction,diabetic rats,45.8%
same,MNCV,diabetic rats; streptozotocin diabetic rats,54 m/s
same,inhibition at 30 µM,RAW 264.7 cells,27%
same,LD50,[2],> 2000 mg/kg
